Measured values: ChEMBL document CHEMBL1157081, “HPLC-based activity profiling for GABA(A) receptor modulators: a new dihydroisocoumarin from Haloxylon scoparium” (J Nat Prod, 2010)
The source made the active and inactive calls. The calls are words filed in the database; no cut-off is given here.

Columns and labels:
[1] = Allosteric modulation at GABA A receptor alpha-1-beta-2-gamma-2S expressed in Xenopus oocytes assessed as enhancement of GABA-induced chloride current; format: cell-based; conditions: Oocyte
Oocyte [2] = assay: Allosteric modulation at GABA A receptor alpha-1-beta-2-gamma-2S expressed in Xenopus oocytes assessed as enhancement of GABA-induced chloride current at 500 uM; format: cell-based
Oocyte [3] = assay: Agonist activity at GABA A receptor alpha-1-beta-2-gamma-2S expressed in Xenopus oocytes assessed as enhancement of chloride current at 500 uM; format: functional, cell-based
Oocyte [4] = assay: Allosteric modulation at GABA A receptor alpha-1-beta-2-gamma-2S expressed in Xenopus oocytes assessed as enhancement of GABA-induced chloride current at >=3 uM; format: cell-based

SMILES | EC50 [1] [µM] | Activity (Oocyte [2]) [%] | Activity (Oocyte [3]) | Activity (Oocyte [4])
COc1c2c(cc3c1C(=O)O[C@H](c1ccccc1)C3)OCO2 | 140 | 145 | inactive | Active
CC1(C)C2CCC1(C)C(O)C2 (racemic) [BORNEOL] | 237 | – | – | –
CC(C)=CCC[C@](C)(O[C@@H]1O[C@H](CO[C@@H]2O[C@@H](CO)[C@H](O)[C@H]2O)[C@@H](O)[C@H](O)[C@H]1O)[C@H]1CC[C@]2(C)[C@@H]1[C@H](O)C[C@@H]1[C@@]3(C)CC[C@H](O[C@@H]4O[C@H](CO)[C@@H](O)[C@H](O)[C@H]4O[C@@H]4O[C@H](CO)[C@@H](O)[C@H](O)[C@H]4O)C(C)(C)[C@@H]3CC[C@]12C [GINSENOSIDE RC] | 53.2 | – | – | –
